The values below come from patent publication US20160309717A1, “Compounds with Nematicidal Activity” (BAYER CROPSCIENCE AKTIENGESELLSCHAFT, priority 2013, published 2016).

Data set [1] is described as follows: Measurement of log P values by HPLC on reversed phase columns (EEC directive 79/831 Annex V.A8). To be noted: for LogP [b] / chromatographic logP: LC-MS at pH 2.7, 0.1% formic acid in water / acetonitrile; for LogP [c]: LC-MS at pH 7.8, 0.001 molar ammonium hydrogen carbonate in water / acetonitrile; for chromatographic logP: reversed phase HPLC column, read-out: LogP [b]. The data set is classed as physicochemical. The method, then:
Measurement of Log P-Values:
Measurement of log P values was performed according EEC directive 79/831 Annex V.A8 by HPLC (High Performance Liquid Chromatography) on reversed phase columns with the following methods:
^[a] Measurement was done at pH 2.3 with 0.1% phosphoric acid and acetonitrile as eluent with a linear gradient from 10% acetonitrile to 95% acetonitrile.
^[b]measurement of LC-MS was done at pH 2.7 with 0.1% formic acid in water and with acetonitrile (contains 0.1% formic acid) as eluent with a linear gradient from 10% acetonitrile to 95% acetonitrile.
^[c] Measurement with LC-MS was done at pH 7.8 with 0.001 molar ammonium hydrogen carbonate solution in water as eluent with a linear gradient from 10% acetonitrile to 95% acetonitrile.
Calibration was done with not branched alkan2-ones (with 3 to 16 carbon atoms) with known log P-values (measurement of log P values using retention times with linear interpolation between successive alkanones). Lambda-maX-values were determined using UV-spectra from 200 nm to 400 nm and the peak values of the chromatographic signals.

The test system of the next data set is Meloidogyne incognita. Nature of the data set: Meloidogyne incognita test, gall formation on salad seedlings in sand. To be noted: application rate 20 ppm; after 14 days; 100% = no galls found. The data set is classed as in vivo. The method, then: Solvent: 125.0 Parts by Weight of Acetone
To produce a suitable preparation of active compound, 1 part by weight of active compound is mixed with the stated amount of solvent, and the concentrate is diluted with water to the desired concentration.
Vessels are filled with sand, a solution of the active ingredient, a suspension containing eggs and larvae of the southern root-knot nematode (Meloidogyne incognita) and salad seeds. The salad seeds germinate and the seedlings grow. Galls develop in the roots.
After 14 days the nematicidal activity is determined on the basis of the percentage of gall formation. 100% means no galls were found and 0% means the number of galls found on the roots of the treated plants was equal to that in untreated control plants.

A further data set deals with Cooperia curticei. Nature of the data set: Cooperia curticei test (COOPCU), larval mortality. Here is the method: (§1) Solvent: Dimethyl Sulfoxide
(§2) To produce a suitable preparation of active compound, 10 mg of active compound are dissolved in 0.5 ml solvent, and the concentrate is diluted with “Ringer's solution” to the desired concentration.
Approximately 40 nematode larvae (Cooperia curticei) are transferred into a test tube containing the compound solution.
After 5 days percentage of larval mortality is recorded. 100% efficacy means all larvae are killed; 0% efficacy means no larvae are killed.

The test system of a further data set is Haemonchus contortus. Nature of the data set: microbe, parasite or virus in culture. To be noted: 120 h, read-out: activity (percentage of larval mortality). The method, then: as §1, §2
Approximately 40 larvae of the red stomach worm (Haemonchus contortus) are transferred into a test tube containing compound solution.
After 5 days percentage of larval mortality are recorded. 100% efficacy means all larvae are killed, 0% efficacy means no larvae are killed.

As for `O=C(NCC1(c2cccc(Cl)n2)CC1)c1cccnc1C(F)(F)F` [Example 1], in data set [1], the “LogP [b]” value is given as 2,42 and the “LogP [c]” value is on record as 2,41.
As for `O=C(NCC1(c2cccc(Cl)n2)CC1)c1c(F)cccc1F` [Example 2], in data set [1], the “LogP [b]” value is given as 2,63 and the “LogP [c]” value is listed as 2,62.
For the compound `O=C(NCC1(c2cccc(Cl)n2)CC1)c1ccccc1I` [Example 3], in data set [1], the “LogP [b]” value is 2,98 and the “LogP [c]” value was 2,96.
Regarding `O=C(NCC1(c2cccc(Cl)n2)CC1)c1ccccc1C(F)(F)F` [Example 4], in data set [1], the “LogP [b]” value amounted to 3 and the “LogP [c]” value is 2,99.
As for `O=C(NCC1(c2cccc(Cl)n2)CC1)c1cccnc1Cl` [Example 5], in data set [1], the “LogP [b]” value is “^[b]2,11 ^[c]2,11” and the “LogP [c]” value was “^[b]2,11 ^[c]2,11”.
With `Cn1cc(C(=O)NCC2(c3cccc(Cl)n3)CC2)c(C(F)F)n1` [Example 6], in data set [1], the “LogP [b]” value was 2,25 and the “LogP [c]” value is 2,24.
The matching figures for `O=C(NCC1(c2ccc(Br)cn2)CC1)c1ccccc1C(F)(F)F` [Example 7]: “^[b]3,1 ^[c]3,1” and “^[b]3,1 ^[c]3,1”.
Regarding `O=C(NCC1(c2ccc(Br)cn2)CC1)c1ccccc1I` [Example 8], in data set [1], the “LogP [b]” value was 3,1 and the “LogP [c]” value was 3,09.
Take `O=C(NCC1(c2ccc(Br)cn2)CC1)c1c(F)cccc1F` [Example 9]: in data set [1], the “LogP [b]” value is “^[b]2,71 ^[c]2,71” and the “LogP [c]” value is “^[b]2,71 ^[c]2,71”.
As for `O=C(NCC1(c2ccc(Br)cn2)CC1)c1cccnc1C(F)(F)F` [Example 10], the “nematicidal activity on the basis of the percentage of gall formation” value in the data set with Meloidogyne incognita is on record as 90%. In data set [1], the “LogP [b]” value was 2,51 and the “LogP [c]” value was 2,5.
On to `O=C(NCC1(c2ccc(Br)cn2)CC1)c1cccnc1Cl` [Example 11], for which, in data set [1], the “LogP [b]” value is recorded as 2,17 and the “LogP [c]” value was 2,18.
For the compound `Cn1cc(C(=O)NCC2(c3ccc(Br)cn3)CC2)c(C(F)F)n1` [Example 12], in data set [1], the “LogP [b]” value was 2,31 and the “LogP [c]” value is on record as 2,33.
A word on the mortality: it is the share of the test organisms that died. As to `Cn1cc(C(=O)NCC2(c3ncc(C(F)(F)F)cc3Cl)CC2)c(C(F)F)n1` [Example 13, N-[[1-[3-chloro-5-(trifluoromethyl)-2-pyridyl]cyclopropyl]methyl]-3-(difluoromethyl)-1-methyl-pyrazole-4-carboxamide], the mortality at 20 ppm in the data set on Cooperia curticei (Cooperia curticei, 120 h, read-out: activity (percentage of larval mortality)) is 100%; with Haemonchus contortus, 80%. For the same compound, the “nematicidal activity on the basis of the percentage of gall formation” value in the data set on Meloidogyne incognita was 100%. Further, the chromatographic logP in data set [1] was found to be 2.63.
For `O=C(NCC1(c2ncc(Br)cc2Cl)CC1)c1cccnc1C(F)(F)F` [Example 14, N-{[1-(5-bromo-3-chloropyridin-2-yl)cyclopropyl]methyl}-2-(trifluoromethyl)nicotinamide], the chromatographic logP in data set [1] amounted to 2.88.
Take `O=C(NCC1(c2ccc(Cl)cn2)CC1)c1ccccc1C(F)(F)F` [Example 15]: the “activity (percentage of larval mortality)” value in the data set with Cooperia curticei (application rate 20 ppm, after 5 days, 100% = all larvae killed) came to 90%. Besides, the “nematicidal activity on the basis of the percentage of gall formation” value with Meloidogyne incognita came to 70%. Besides, in data set [1], the “LogP [b]” value is given as 2,91 and the “LogP [c]” value is 2,96.
